Assay results taken from the supplement of paper PMC9663587.

What was measured:
Flavopiridol [1] = compound: T1, CN1CC[C@H](c2c(O)cc(O)c3c(=O)cc(-c4ccccc4Cl)oc23)[C@H](O)C1 [Flavopiridol]; experiment: GR value, 72 h; higher = faster growth (1 = untreated, <0 = killing);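 note: breast cancer and non-malignant breast epithelial lines, nine half-log doses, viable cells counted by Hoechst and LIVE/DEAD dye imaging versus time-zero plates and DMSO controls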
THZ1 = compound: CN(C)C/C=C/C(=O)Nc1ccc(C(=O)Nc2cccc(Nc3ncc(Cl)c(-c4c[nH]c5ccccc45)n3)c2)cc1 [THZ1]; experiment: as above
THZ531 = compound: CN(C)C/C=C/C(=O)Nc1ccc(C(=O)N2CCC[C@@H](Nc3ncc(Cl)c(-c4c[nH]c5ccccc45)n3)C2)cc1 [THZ531]; experiment: as above
LEE011/Ribociclib = compound: CN(C)C(=O)c1cc2cnc(Nc3ccc(N4CCNCC4)cn3)nc2n1C1CCCC1 [LEE011/Ribociclib]; experiment: as above
Neratinib/HKI272 = compound: CCOc1cc2ncc(C#N)c(Nc3ccc(OCc4ccccn4)c(Cl)c3)c2cc1NC(=O)/C=C/CN(C)C [Neratinib/HKI272]; experiment: as above
BSJ-03-123 = compound: CC(=O)c1c(C)c2cnc(Nc3ccc(N4CCN(CCOCCOCCOCCNC(=O)COc5cccc6c5C(=O)N(C5CCC(=O)NC5=O)C6=O)CC4)cn3)nc2n(C2CCCC2)c1=O [BSJ-03-123]; experiment: as above
[2] = compound: CC(=O)c1c(C)c2cnc(Nc3ccc(N4CCNCC4)cn3)nc2n(C2CCCC2)c1=O; experiment: as above
YKL-5-124 = compound: C=CC(=O)Nc1ccc(C(=O)Nc2[nH]nc3c2CN(C(=O)N[C@H](CN(C)C)c2ccccc2)C3(C)C)cc1 [YKL-5-124]; experiment: as above
[3] = compound: CCc1cnn2c(NCc3ccc[n+]([O-])c3)cc(N3CCCC[C@H]3CCO)nc12; experiment: as above
[4] = compound: CCN1CCN(Cc2ccc(Nc3ncc(F)c(-c4cc(F)c5nc(C)n(C(C)C)c5c4)n3)nc2)CC1; experiment: as above
Flavopiridol [5] = compound: T1, Flavopiridol
ABT-737 = compound: CN(C)CC[C@H](CSc1ccccc1)Nc1ccc(S(=O)(=O)NC(=O)c2ccc(N3CCN(Cc4ccccc4-c4ccc(Cl)cc4)CC3)cc2)cc1[N+](=O)[O-] [ABT-737]
[6] = compound: CO[C@@H](C)Cn1c(=O)n(C)c2cnc3ccc(-c4cncc(C(C)(C)O)c4)cc3c21
Taselisib/GDC0032 = compound: Cc1nc(-c2cn3c(n2)-c2ccc(-c4cnn(C(C)(C)C(N)=O)c4)cc2OCC3)n(C(C)C)n1 [Taselisib/GDC0032]
Saracatinib/AZD0530 = compound: CN1CCN(CCOc2cc(OC3CCOCC3)c3c(Nc4c(Cl)ccc5c4OCO5)ncnc3c2)CC1 [Saracatinib/AZD0530]
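Throughout, for GR50, 72 h: breast cancer and non-malignant breast epithelial cell lines, Deep Dye Drop or Dye Drop imaging, nine half-log doses, GR normalized to time-zero plates and DMSO-only controls.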

SUM229PE gave a GR value (Flavopiridol [1]; 0.0001 µM) of 0.982 GR, a GR value (Flavopiridol [1]; 0.0003162 µM) of 0.93 GR and a GR value (Flavopiridol [1]; 0.001 µM) of 0.925 GR. The GR value (Flavopiridol [1]; 0.003162 µM) was 0.954 GR, the GR value (Flavopiridol [1]; 0.01 µM) was 0.927 GR and the GR value (Flavopiridol [1]; 0.03162 µM) was 0.914 GR. It also gave a GR value (Flavopiridol [1]; 0.1 µM) of 0.559 GR, a GR value (Flavopiridol [1]; 0.3162 µM) of 0.0326 GR and a GR value (Flavopiridol [1]; 1 µM) of -0.182 GR. The GR value (THZ1; 0.0001 µM) was 1 GR, the GR value (THZ1; 0.0003162 µM) was 1 GR and the GR value (THZ1; 0.001 µM) was 1.04 GR. For the same cell line, the GR value (THZ1; 0.003162 µM) was 0.953 GR, the GR value (THZ1; 0.01 µM) was 0.65 GR and the GR value (THZ1; 0.03162 µM) was 0.283 GR. The GR value (THZ1; 0.1 µM) was -0.0615 GR, the GR value (THZ1; 0.3162 µM) was -0.216 GR and the GR value (THZ1; 1 µM) was -0.297 GR. For the same cell line, the GR value (THZ531; 0.0001 µM) was 1.03 GR, the GR value (THZ531; 0.0003162 µM) was 0.991 GR and the GR value (THZ531; 0.001 µM) was 0.943 GR. The GR value (THZ531; 0.003162 µM) was 1.01 GR, the GR value (THZ531; 0.01 µM) was 1.07 GR and the GR value (THZ531; 0.03162 µM) was 1.08 GR. It also gave a GR value (THZ531; 0.1 µM) of 0.915 GR, a GR value (THZ531; 0.3162 µM) of 0.506 GR and a GR value (THZ531; 1 µM) of -0.133 GR. For the same cell line, the GR value (LEE011/Ribociclib; 0.001 µM) was 0.91 GR, the GR value (LEE011/Ribociclib; 0.003162 µM) was 0.911 GR and the GR value (LEE011/Ribociclib; 0.01 µM) was 0.822 GR. The GR value (LEE011/Ribociclib; 0.03162 µM) was 0.806 GR, the GR value (LEE011/Ribociclib; 0.1 µM) was 0.758 GR and the GR value (LEE011/Ribociclib; 0.3162 µM) was 0.722 GR. The GR value (LEE011/Ribociclib; 1 µM) was 0.728 GR, the GR value (LEE011/Ribociclib; 3.162 µM) was 0.633 GR and the GR value (LEE011/Ribociclib; 10 µM) was 0.562 GR. For the same cell line, the GR value (Neratinib/HKI272; 0.0003162 µM) was 1.03 GR, the GR value (Neratinib/HKI272; 0.001 µM) was 0.967 GR and the GR value (Neratinib/HKI272; 0.003162 µM) was 0.972 GR. The GR value (Neratinib/HKI272; 0.01 µM) was 0.951 GR, the GR value (Neratinib/HKI272; 0.03162 µM) was 0.952 GR and the GR value (Neratinib/HKI272; 0.1 µM) was 0.751 GR. For the same cell line, the GR value (Neratinib/HKI272; 0.3162 µM) was 0.562 GR, the GR value (Neratinib/HKI272; 1 µM) was 0.386 GR and the GR value (Neratinib/HKI272; 3.162 µM) was 0.203 GR. The GR value (BSJ-03-123; 0.001 µM) was 0.887 GR, the GR value (BSJ-03-123; 0.003162 µM) was 0.881 GR and the GR value (BSJ-03-123; 0.01 µM) was 0.87 GR. For the same cell line, the GR value (BSJ-03-123; 0.03162 µM) was 0.857 GR, the GR value (BSJ-03-123; 0.1 µM) was 0.758 GR and the GR value (BSJ-03-123; 0.3162 µM) was 0.785 GR. It also gave a GR value (BSJ-03-123; 1 µM) of 0.568 GR, a GR value (BSJ-03-123; 3.162 µM) of 0.497 GR and a GR value (BSJ-03-123; 10 µM) of 0.114 GR. For the same cell line, the GR value ([2]; 0.0003162 µM) was 0.988 GR, the GR value ([2]; 0.001 µM) was 0.983 GR and the GR value ([2]; 0.003162 µM) was 0.933 GR. The GR value ([2]; 0.01 µM) was 0.906 GR, the GR value ([2]; 0.03162 µM) was 0.848 GR and the GR value ([2]; 0.1 µM) was 0.711 GR. For the same cell line, the GR value ([2]; 0.3162 µM) was 0.563 GR, the GR value ([2]; 1 µM) was 0.536 GR and the GR value ([2]; 3.162 µM) was 0.392 GR. For the same cell line, the GR value (YKL-5-124; 0.001 µM) was 0.467 GR, the GR value (YKL-5-124; 0.003162 µM) was 0.321 GR and the GR value (YKL-5-124; 0.01 µM) was 0.295 GR. The GR value (YKL-5-124; 0.03162 µM) was 0.291 GR, the GR value (YKL-5-124; 0.1 µM) was 0.27 GR and the GR value (YKL-5-124; 0.3162 µM) was 0.225 GR. It also gave a GR value (YKL-5-124; 1 µM) of 0.238 GR, a GR value (YKL-5-124; 3.162 µM) of 0.17 GR and a GR value (YKL-5-124; 10 µM) of -0.0733 GR. The GR value ([3]; 0.0001 µM) was 1.04 GR, the GR value ([3]; 0.0003162 µM) was 1.02 GR and the GR value ([3]; 0.001 µM) was 0.991 GR. It also gave a GR value ([3]; 0.003162 µM) of 1.01 GR, a GR value ([3]; 0.01 µM) of 0.796 GR and a GR value ([3]; 0.03162 µM) of -0.122 GR. The GR value ([3]; 0.1 µM) was -0.194 GR, the GR value ([3]; 0.3162 µM) was -0.203 GR and the GR value ([3]; 1 µM) was -0.209 GR. It also gave a GR value ([4]; 0.001 µM) of 0.924 GR, a GR value ([4]; 0.003162 µM) of 0.888 GR and a GR value ([4]; 0.01 µM) of 0.831 GR. It also gave a GR value ([4]; 0.03162 µM) of 0.727 GR, a GR value ([4]; 0.1 µM) of 0.611 GR and a GR value ([4]; 0.3162 µM) of 0.56 GR. It also gave a GR value ([4]; 1 µM) of 0.439 GR, a GR value ([4]; 3.162 µM) of 0.343 GR and a GR value ([4]; 10 µM) of 0.284 GR. The “GR50, 72 h” value (Flavopiridol [5]) was 0.109 µM, the “GR50, 72 h” value (ABT-737) was 8.41 µM and the “GR50, 72 h” value [6] was 0.453 µM. The “GR50, 72 h” value (Taselisib/GDC0032) was 0.377 µM and the “GR50, 72 h” value (Saracatinib/AZD0530) was 5.44 µM.
